Source: US10118934B2 (Wisconsin Alumni Research Foundation, priority 2014, dated 2018)
Converted amounts (≈) assume the structure as drawn. “And” between values parts separate entries of the source, which are not always exact repeats. Identical values can stand only once. “Also recorded” adds a separate entry of the source. Like-named read-outs stand apart in the source and are kept apart here.

What was measured:
KpUGM [1] = target: T1, KpUGM (Klebsiella pneumoniae, UniProt Q48485); experiment: biochemical; format: binding; conditions: for Kd: probe displacement in competitive-binding FP assay
T1 construct: His-tag; made in house; host or cells: E. coli BL21(DE3)
T1 sequence (Q48485 24-384): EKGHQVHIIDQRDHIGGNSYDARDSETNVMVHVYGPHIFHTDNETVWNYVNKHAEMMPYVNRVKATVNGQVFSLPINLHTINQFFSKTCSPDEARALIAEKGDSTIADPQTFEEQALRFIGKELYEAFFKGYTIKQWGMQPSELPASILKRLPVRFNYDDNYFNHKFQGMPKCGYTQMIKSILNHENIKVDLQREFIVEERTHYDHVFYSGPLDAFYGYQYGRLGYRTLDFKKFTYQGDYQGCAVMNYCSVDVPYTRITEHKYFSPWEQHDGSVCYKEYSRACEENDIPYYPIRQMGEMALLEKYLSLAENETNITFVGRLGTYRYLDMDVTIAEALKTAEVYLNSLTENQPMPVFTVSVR
Method: A fluorescence polarization assay was used to measure ligand binding to KpUGM [Soltero-Higgin et al. 2004, Carlson et al. 2006] Tumbling of the fluorescein-UDP conjugated probe was measured on a Tecan M1000 microplate reader, exciting with 470 nm light and monitoring emission at 525 nm. Each condition was tested in triplicate in the presence of 220 nM KpUGM and 23.3 nM of the probe. Data was fit with a one-site binding nonlinear regression in GraphPad Prism 6.

KpUGM [2] = target: T1, KpUGM; format: biochemical; conditions: for Ki: Lineweaver-Burk analysis, competitive inhibition; for effect of detergent on KpUGM inhibition: presence and absence of 0.025% Tween 80
Method: Anal Biochem, 1996: p. […] J Med Chem, 2002. 45(8): p. 1712-22] we repeated the assay in the presence of detergent (0.025% Tween 80).
(§1) Enzymatic activity of recombinant UGM was monitored using an HPLC-based assay [Wesener et al., 2013; Lee et al. 1996; Zhang, Q. and H.-w. […] J. Amer. Chem. Soc., 2000. 122(38): p. 9065-9070]. Reactions were performed in duplicate at 22° C. in 50 mM NaH2PO4 buffer (pH 7) with 20 nM enzyme and 20 mM fresh sodium dithionite. Small molecules were added from DMSO stocks to a final concentration of 1% DMSO. Concentration of UDP-Galf [Marlow, A. L. and L. L. Kiessling, Improved Chemical Synthesis of UDP-Galactofuranose. Org Lett, 2001. 3(16): p. 2517-2519] was held constant at the Km of the UGM homolog being analyzed, except for generation of Lineweaver-Burk plots. Reaction time and substrate concentration were varied for Lineweaver-Burk analysis, and each condition was tested in triplicate. Quenched reactions were run through a CarboPac PA-100 column (Thermo Scientific) on an Agilent 1260 Infinity HPLC using an isocratic elution of 200 mM ammonium acetate (pH 8) to separate substrate and product peaks.

[3] = dynamic light scattering (DLS) detection of colloidal aggregation; format: physicochemical
Method: To evaluate aggregation by DLS compounds were diluted from concentrated stocks in DMSO into filtered 50 mM potassium phosphate, pH 7.0. The final DMSO concentration was 1%, and compound concentrations were usually 100 μM. Samples were run in duplicates. All measurements were made at room temperature using a DynaPro MS/X (Wyatt Technology) with a 55 mW laser at 826.6 nm. The laser power was 100%, and the detector angle was 90°.

AmpC β-lactamase = AmpC β-lactamase (Escherichia coli, UniProt P00811); format: biochemical; conditions: for inhibition of AmpC β-lactamase: 100 μM
Chain of AmpC β-lactamase (P00811 20-377): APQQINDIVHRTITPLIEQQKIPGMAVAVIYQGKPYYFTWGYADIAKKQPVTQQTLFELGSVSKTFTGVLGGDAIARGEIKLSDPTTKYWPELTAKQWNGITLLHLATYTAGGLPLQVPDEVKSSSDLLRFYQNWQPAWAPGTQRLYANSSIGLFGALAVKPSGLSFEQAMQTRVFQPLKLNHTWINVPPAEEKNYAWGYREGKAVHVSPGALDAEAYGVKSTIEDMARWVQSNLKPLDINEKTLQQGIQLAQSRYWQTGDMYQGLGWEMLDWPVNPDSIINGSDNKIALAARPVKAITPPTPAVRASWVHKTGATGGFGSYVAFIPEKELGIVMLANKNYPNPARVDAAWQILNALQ
Method: (§2) Compounds were tested for inhibition of Malate Dehydrogenase and AmpC β-lactamase as reported. Assays were performed in 50 mM potassium phosphate buffer, pH 7.0 at 25° C. For AmpC the molecules were mixed with buffer and CENTA substrate (50 μM; Tydock Pharma; Modena, Italy) to a final concentration of 1% DMSO (v/v). Reactions were initiated by addition of β-Lactamase (1 nM). Change in absorbance was monitored at 405 nm for 3 minutes. For Malate Dehydrogenase assay (MDH; Sigma Cat# M-7032), the molecule was mixed with buffer and 2 nM final concentration of the enzyme to a final concentration of 1% DMSO (v/v) and were incubated for five minutes. MDH reactions were started by adding substrates: Oxaloacetic acid (20 mM stock in buffer, prepared fresh daily; Sigma Cat# O4126) to a final concentration 200 μM and NADH (20 mM stock in buffer—prepare fresh daily; Sigma Cat# N-4505) to a final concentration 200 μM. Change in absorbance was monitored at […] for 2.5 minutes. Absorbance was monitored on an HP 8453 UV—visible spectrophotometer (Agilent, Technologies, Santa Clara, Calif.). The assays were performed in duplicate in methacrylate disposable cuvettes.

[4] = target: T2, Malate Dehydrogenase (MDH) (Thermus thermophilus, UniProt P10584); experiment: aggregation counter screen, malate dehydrogenase inhibition; format: biochemical
T2 construct: purchased Sigma M-7032
T2 sequence (P10584 whole entry): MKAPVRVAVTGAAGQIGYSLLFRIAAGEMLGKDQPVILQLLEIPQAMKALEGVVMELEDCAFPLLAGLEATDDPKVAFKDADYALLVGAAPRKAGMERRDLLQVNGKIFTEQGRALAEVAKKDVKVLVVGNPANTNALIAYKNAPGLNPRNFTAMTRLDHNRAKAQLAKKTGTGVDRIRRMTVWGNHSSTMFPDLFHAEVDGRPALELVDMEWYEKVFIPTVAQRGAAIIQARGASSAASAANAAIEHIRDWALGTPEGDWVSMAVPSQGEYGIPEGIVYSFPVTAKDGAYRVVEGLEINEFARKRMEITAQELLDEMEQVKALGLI
Method: as §2

M. smegmatis [5] = experiment: microbroth dilution assay with alamar Blue readout; format: cell-based, Mycobacterium smegmatis; conditions: liquid culture
B. subtilis [6] = experiment: broth microdilution, control strain without UGM; format: cell-based; conditions: control strain without UGM ortholog
B strain E. coli = experiment: broth microdilution, control strain without UGM; format: cell-based; conditions: control strain without UGM ortholog
E. coli = experiment: disk diffusion assay; format: cell-based; conditions: solid media, tested concentration
Method: J Bacteriol, 1989. 171(3): p. […] Cells were incubated at 37° C. overnight.

HEK293 cells = experiment: cytotoxicity assay (CellTiter-Glo); format: cell-based
Method: Four thousand HEK 293T cells were added to wells of a sterile 96-well plate in 99 μl DMEM with 10% FBS. The plate was incubated for 24 hours at 37° C. with 5% CO2 to allow cells to attach. Cells were then treated with serially diluted small molecules or a vehicle control. The final DMSO concentration was 1% in each well. After 24 hours of incubation, viability of the treated cells was analyzed using CellTiter-Glo Luminescent Cell Viability Assay (Promega). Viability readings were normalized to DMSO control wells.

M. smegmatis [7] = experiment: disk diffusion assay; conditions: solid media, 100 nmol per disk
Method: (§3) 1-8], and M. smegmatis were grown, the former two species in LB broth and the later in 7H9 Middlebrook media. Cells were diluted to an OD600 of 0.2 in fresh media and spread (100 μL) onto LB agar plates. Following an hour of incubation at 37° C., sterile cloning disks (3.2 mm diameter, Scienceware) impregnated with 100 nmol of compound or 2 μL of DMSO were placed on the surface of the inoculated solid media. Cells were incubated at 37° C. overnight. Plates with M. smegmatis were incubated 3 additional days at room temperature. Zones of inhibition were measured from the outer edge of the cloning disk to the border of cell growth.

B. subtilis [8] = experiment: disk diffusion assay; conditions: solid media, 100 nmol per disk
Method: as §3

MtUGM [9] = target: T3, MtUGM (Mycobacterium tuberculosis, UniProt P9WIQ1); experiment: HPLC-based UGM activity assay, homolog specificity; format: biochemical; conditions: 100 μM compound
T3 sequence (P9WIQ1 whole entry): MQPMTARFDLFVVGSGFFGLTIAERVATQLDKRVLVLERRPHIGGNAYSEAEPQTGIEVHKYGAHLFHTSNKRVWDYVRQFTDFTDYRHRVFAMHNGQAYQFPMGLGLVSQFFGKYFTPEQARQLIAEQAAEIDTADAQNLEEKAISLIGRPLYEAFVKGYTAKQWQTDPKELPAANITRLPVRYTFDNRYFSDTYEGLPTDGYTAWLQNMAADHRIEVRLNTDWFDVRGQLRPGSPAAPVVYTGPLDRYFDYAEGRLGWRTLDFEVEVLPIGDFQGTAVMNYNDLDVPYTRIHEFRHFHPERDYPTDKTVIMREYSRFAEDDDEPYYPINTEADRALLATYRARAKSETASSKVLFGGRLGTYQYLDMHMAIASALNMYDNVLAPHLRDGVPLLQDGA

CdUGM = target: T4, CdUGM (Corynebacterium diphtheriae, UniProt Q6NER4); experiment: HPLC-based UGM activity assay, homolog specificity; format: biochemical, C. diphtheriae; conditions: 100 μM compound
T4 construct: Open reading frame coding for residue 18-404 of CdUGM was amplified; His-tag with TEV cleavage site (N); made in house; host or cells: Escherichia coli ER2523
T4 sequence (Q6NER4 entry or part of it): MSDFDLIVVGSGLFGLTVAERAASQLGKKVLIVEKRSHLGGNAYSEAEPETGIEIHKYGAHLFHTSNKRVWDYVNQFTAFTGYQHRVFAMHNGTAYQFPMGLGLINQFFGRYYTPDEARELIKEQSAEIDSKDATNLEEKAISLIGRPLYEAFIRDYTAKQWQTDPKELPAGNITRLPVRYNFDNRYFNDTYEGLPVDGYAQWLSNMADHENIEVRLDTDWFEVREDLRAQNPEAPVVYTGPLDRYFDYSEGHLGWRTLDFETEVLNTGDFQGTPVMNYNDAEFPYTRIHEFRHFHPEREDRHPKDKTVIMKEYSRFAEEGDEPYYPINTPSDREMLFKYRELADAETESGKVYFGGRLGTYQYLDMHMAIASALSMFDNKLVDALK
Method: The specificity of in vitro UGM inhibition was assessed using purified recombinant UGM homologs. MtUGM and C. diptheriae UGM (CdUGM) share about 43% sequence identity with KpUGM, and 76% identity with each other. However, active site residues are highly conserved between the homologs. […] This trend was consistent for other analogs from this series (FIG. 14).
as §1

MtUGM [10] = target: T3, MtUGM; conditions: compound library screened against MtUGM; cited from earlier work

In the case of `O=C(O)CC1Sc2nnc(Cc3ccc(Br)cc3)n2N=C1c1ccc(Cl)cc1` (stereo not shown) [Compound 30], the Kd (KpUGM [1]) is reported as 4.5 µM and 4.7 µM, the “KpUGM activity in presence of compound” value (KpUGM [2]; 50 μM compound) is reported as “no measurable activity” and the “KpUGM activity in presence of compound” value (KpUGM [2]; 100 μM compound) is reported as “no measurable activity”. The “selectivity between UGM homologs” value (KpUGM [2]; KpUGM vs MtUGM and CdUGM) was “selective for KpUGM over MtUGM and CdUGM”, the Ki (KpUGM [2]) was 1.1 µM and the “potency relative to compound 22 in vitro” value (KpUGM [2]; from Ki values) was “about 5 fold”. The “colloidal aggregation by DLS” value ([3]; 10 μM) was “does not aggregate”, the “colloidal aggregation by DLS” value ([3]; 100 μM) was “forms colloidal aggregates; also recorded: do form colloids” and the “colloidal aggregation by DLS” value ([3]; high concentrations) was “show aggregation”. For the same molecule, the “inhibition of AmpC” value (AmpC β-lactamase; high concentrations) was “non-specific inhibition”, the “effect of detergent on MDH inhibition” value ([4]; addition of detergent) was “fully rescued by the addition of detergent; also recorded: reversible by the addition of detergent” and the IC50 ([4]; full dose response curve, no detergent) was 55.7 µM. The “inhibition of MDH” value ([4]; high concentrations) was “non-specific inhibition”, the MIC (M. smegmatis [5]; 46 hours of growth, alamar blue) was 20 µM (≈ 9.56 µg/mL) and the MIC (B. subtilis [6]) was 500 µM (≈ 239 µg/mL). The MIC (B strain E. coli) was greater than 500 µM, the “cell-killing in disk diffusion” value (E. coli) was “No cell-killing” and the “difference between LD50 and MIC for M. smegmatis” value (HEK293 cells) was 5 fold. For the same molecule, the cellular toxicity (HEK293 cells; HEK293 cells) was “only mildly toxic”, the LD50 (HEK293 cells; HEK293 cells, 24 hours) was roughly 100 µM and the “zone of growth inhibition, comparison within series” value (M. smegmatis [7]) was “outperformed all other compounds of the series”. The “zone of growth inhibition” value (B. subtilis [8]) was “significantly smaller than that observed for M. smegmatis”.

In the case of `O=C(O)CC1Sc2nnc(-c3cccs3)n2N=C1c1ccc(Cl)cc1` (stereo not shown) [Compound 22], the Kd (KpUGM [1]) is reported as 9 µM and 9.2 µM, the Ki (KpUGM [2]) is reported as 7 µM and the “inhibition of MtUGM” value (MtUGM [9]) is reported as 19%. For the same molecule, the “inhibition of CdUGM” value (CdUGM) was 38%, the “colloidal aggregation by DLS” value ([3]; 100 μM) was “did not show any aggregation; also recorded: do not aggregate; also recorded: no sign of colloidal aggregation” and the “M. smegmatis growth repression” value (M. smegmatis [5]; tested concentrations) was “no M. smegmatis growth repression”.

In the case of `C=CCNc1nc(-c2cc(C)n(CCC(=O)O)c2C)cs1` [Compound 10], the Kd (KpUGM [1]) is reported as 9 µM and 6 µM, the “effect of detergent on KpUGM inhibition” value (KpUGM [2]; 100 μM compound) is reported as “insensitive to detergent” and the “colloidal aggregation by DLS” value ([3]; 100 μM) is reported as “do not form detectable colloids; also recorded: no sign of colloidal aggregation”. The “inhibition of AmpC β-lactamase” value (AmpC β-lactamase) was “do not display any inhibition”.

For `Cc1ccc(C2=Nn3c(COc4ccc(Cl)cc4)nnc3SC2CC(=O)O)cc1` (stereo not shown) [Compound 24], the Kd (KpUGM [1]) was 9 µM and 9.2 µM, the “colloidal aggregation by DLS” value ([3]; 100 μM) was “form colloidal aggregates; also recorded: do form colloids” and the “colloidal aggregation by DLS” value ([3]; high concentrations) was “show aggregation”. The “detection as hit in HTS” value (MtUGM [10]) was “not detected by HTS”.

In the case of `O=C(O)CC1Sc2nnc(Cc3ccc(F)cc3)n2N=C1c1ccccc1` (stereo not shown) [Compound 19], the Kd (KpUGM [1]) is reported as 15 µM, the “colloidal aggregation by DLS” value ([3]; 100 μM) is reported as “form colloidal aggregates; also recorded: do form colloids” and the “colloidal aggregation by DLS” value ([3]; high concentrations) is reported as “show aggregation”.

In the case of `Cc1cc(-c2csc(NC(C)c3ccccc3)n2)c(C)n1CCC(=O)O` (stereo not shown) [Compound 14], the “binding compared with compound 10” value (KpUGM [1]; FP assay) is reported as “slightly tighter binding than compound 10”, the Kd (KpUGM [1]) is reported as 4.5 µM and the “KpUGM inhibition compared with lead compound 10” value (KpUGM [2]; in vitro, dose-dependent) is reported as “improved KpUGM inhibition; also recorded: increased dose-dependent KpUGM inhibition”.

In the case of `O=C(O)CCC(=O)N1N=C(c2ccccc2)CC1c1cccs1` (stereo not shown) [Compound 3], the “detection as hit in HTS” value (MtUGM [10]) is given as “not detected by HTS”.

With `O=C(O)CC1Sc2nnc(-c3ccco3)n2N=C1c1ccccc1` (stereo not shown) [Compound 6] the Kd (KpUGM [1]) was 62 µM and 43 µM, the “effect of detergent on KpUGM inhibition” value (KpUGM [2]; 100 μM compound) was “insensitive to detergent” and the Ki (KpUGM [2]) was 78 µM. For the same molecule, the “colloidal aggregation by DLS” value ([3]; 100 μM) was “do not form detectable colloids; also recorded: do not aggregate; also recorded: no sign of colloidal aggregation”, the “inhibition of AmpC β-lactamase” value (AmpC β-lactamase) was “do not display any inhibition” and the cellular toxicity (HEK293 cells; HEK293 cells) was “no significant cellular toxicity”.
